Like-named read-outs stand apart in the source and are kept apart here.
Experiments:
[1] = test system: manganese superoxide dismutase (MnSOD); assay: MnSOD nitration by immunoprecipitation and western blot; format: in vivo, mice
Procedure: Animals were rapidly sacrificed (<1 min) in a CO2 chamber and the dorsal portion of the spinal cord lumbar region enlargement removed and stored at −80° C. until used. Cytosolic and nuclear extracts were prepared as previously described (Bethea et al., 1998), with minor modifications. Tissues from each mouse were suspended in extraction Buffer A (0.2 mM PMSF, […], 20 μM leupeptin, 1 mM sodium orthovanadate), homogenized for two minutes, and centrifuged at 1,000×g for ten minutes at 4° C. Supernatants were collected as the cytosolic fraction. […] The levels of IκB-α, phospho-NF-κB p65 (serine 536), were quantified in cytosolic fraction from spinal cord tissue, while NF-κB p65 levels were quantified in nuclear fraction. […] Manganese superoxide dismutase (MnSOD) nitration was determined with western blot analysis of immunoprecipitated protein complex in total lysates using antibodies specific to these proteins. […] The relative expression of the protein levels as the band density for IκB-α (˜37 kDa), phospho NF-κB (65 kDa), NF-κB p65 (75 kDa), MnSOD (˜29 kDa), GFAP (˜50 kDa), and Iba1(˜17 kDa) was quantified by scanning of the X-ray films with GS-700 Imaging Densitometer (BIO-RAD U.S.A.) and a computer program (Molecular Analyst, IBM).

[2] = test system: GFAP; assay: spinal expression of GFAP (astrocyte activation); format: in vivo, mice; conditions: for GFAP immunoreactivity in superficial layers of the dorsal horn: micrographs
Procedure: Animals were rapidly sacrificed (<1 min) in a CO2 chamber and the dorsal portion of the spinal cord lumbar region enlargement removed and stored at −80° C. until used. Cytosolic and nuclear extracts were prepared as previously described (Bethea et al., 1998), with minor modifications. Tissues from each mouse were suspended in extraction Buffer A (0.2 mM PMSF, […], 20 μM leupeptin, 1 mM sodium orthovanadate), homogenized for two minutes, and centrifuged at 1,000×g for ten minutes at 4° C. Supernatants were collected as the cytosolic fraction. The pellets containing nuclei were re-suspended in Buffer B (1% Triton X-100, 150 mM NaCl, 10 mM TRIS-HCl pH 7.4, 1 mM EGTA, 1 mM EDTA, 0.2 mM PMSF, 20 μm leupeptin, 0.2 mM sodium orthovanadate). After centrifugation for thirty minutes at 15,000×g at 4° C., the supernatants were collected as nuclear extracts and then stored at […] for further analysis. The levels of IκB-α, phospho-NF-κB p65 (serine 536), were quantified in cytosolic fraction from spinal cord tissue, while NF-κB p65 levels were quantified in nuclear fraction.

[3] = test system: Iba1; assay: spinal expression of Iba1 (microglia activation); format: in vivo, mice; conditions: for Iba1 immunoreactivity in superficial layers of the dorsal horn: micrographs
[4] = test system: peroxynitrite; assay: 3-nitrotyrosine (NT) staining in dorsal horn as marker of peroxynitrite; format: in vivo, mice
Source text: . Detection of NT in this setting can therefore be reliably used as marker of peroxynitrite. […]; FIG. 8c), evidence of the contribution of ceramide in the production of spinal peroxynitrite.

[5] = test system: ceramide; assay: ceramide in spinal cord dorsal horn by immunohistochemistry and ESI-MS/MS (Example 1); format: in vivo, mice
[6] = test system: mice; assay: hot plate, morphine-induced antinociceptive tolerance (Examples 3-5); format: in vivo, Male CD-1 mice; conditions: for % MPE: n=6
Procedure: Nociceptive thresholds were determined by measuring latencies (in seconds) of mice placed in a transparent glass cylinder on a hot plate (Ugo Basile, Italy) maintained at 52° C. Determination of antinociception was assessed between 7 and 10:00 A.M. All injections were given intra-peritoneally (i.p.) or subcutaneously (s.c.) in a volume of 0.1 and 0.3 ml, respectively, at approximately 7 A.M. and 4 P.M. Responses indicative of nociception included intermittent lifting and/or licking of the hindpaws or escape behavior. […] Results were expressed as percentage of maximum possible antinociceptive effect, which was calculated as follows: (response latency−baseline latency)/(cut-off latency−baseline latency)×100. A cut-off latency of twenty seconds was employed to prevent tissue damage. Ten mice per group were used and all experiments were conducted with the experimentors blinded to treatment conditions. […] The following experimental groups were used: […]
Vehicle (V) Group: In this group, mice were injected twice per day for four days with an i.p, injection of saline and a s.c. injection of saline.

[7] = test system: ceramide synthase; assay: ceramide synthase activity in spinal cord homogenates; format: in vivo, mice
Procedure: About 60 to 80 mg of spinal cord homogenates were incubated with [^3H]-palmytic acid (2.5 μCi/ml, GE Healthcare, England) for one hour. Lipids were extracted with ice-cold methanol containing 2% acetic acid and 5% chloroform and resolved using thin-layer chromatography. Lipids co-migrating with standards were scraped and quantified by […] counting as described elsewhere (Castillo et al., 2007).

[8] = test system: mice; format: in vivo; conditions: for % MPE for acute morphine: acute morphine 3 mg/kg s.c. on day five
[9] = acute morphine in tolerant mice vs vehicle
[10] = morphine plus FB1 1 mg/kg/d, n=5, ±SEM

**Q.** `CN1CC[C@]23c4c5ccc(O)c4O[C@H]2[C@@H](O)C=C[C@H]3[C@H]1C5` [morphine] was tested. Which “post-translational nitration of MnSOD” value ([1]; mouse, in vivo) did it give?
**A.** The value was 850±70 densitometry units.

**Q.** And the “GFAP immunoreactivity in superficial layers of the dorsal horn” value [2, 9]?
**A.** Its value is “increased”.

**Q.** And the “spinal expression of GFAP” value ([2]; morphine group, n=5)?
**A.** The value was 7343.95±0.527 densitometry units.

**Q.** What about the “Iba1 immunoreactivity in superficial layers of the dorsal horn” value [3, 9] of the same molecule?
**A.** Its value is “increased”.

**Q.** What about the “spinal expression of IBa1” value ([3]; morphine group, n=5, ±SEM) of the same molecule?
**A.** Its value is 541.29±0.073 densitometry units.

**Q.** And the “NT staining in dorsal horn” value ([4]; morphine tolerant mice)?
**A.** The value was “appearance of NT staining in tolerant mice”.

**Q.** What about the “ceramide in dorsal horn, immunohistochemistry with anti-ceramide antibody” value ([5]; repeated administration of morphine over four days) of the same molecule?
**A.** The value was “appearance of ceramide in the superficial layers of the dorsal horn”.

**Q.** And the “predominant ceramide species increased in dorsal horn tissues, ESI-MS/MS” value ([5]; repeated morphine administration, n=3)?
**A.** The value was 18:0, 20:0, and 22:0 ceramide.

**Q.** And the “percent maximal possible antinociceptive effect” value ([6]; acute morphine 3 mg/kg in vehicle group (saline over four days), hot plate)?
**A.** Its value is 90-95%.

**Q.** And the “% MPE” value ([6]; morphine group (tolerant), acute morphine 3 mg/kg on day five)?
**A.** Its value is 10±2%.

**Q.** And the “development of antinociceptive tolerance” value ([6]; repeated administration of morphine (20 mg/kg/d) over four days)?
**A.** Its value is “led to the development of antinociceptive tolerance”.

**Q.** And the “% MPE” value ([6]; vehicle group (saline four days), acute morphine 3 mg/kg on day five)?
**A.** Its value is 96±3%.

**Q.** And the “enzymatic activity of ceramide synthase (CS)” value ([7]; repeated morphine, tolerant mice vs vehicle)?
**A.** Its value is “increased enzymatic activity”.

**Q.** And the “% MPE for acute morphine” value ([8]; Control group (saline over four days))?
**A.** Its value is 93±8 % MPE.

**Q.** What about the “% MPE for acute morphine” value ([8]; Morphine group (morphine 2×10 mg/kg/day over four days)) of the same molecule?
**A.** Its value is 20±14 % MPE.

**Q.** What about the antinociceptive effect ([8]; acute morphine 3 mg/kg subcutaneously, forty minutes after dose, hot plate 52° C., n=8) of the same molecule?
**A.** Its antinociceptive effect is 99±2%.

**Q.** `CCCC[C@@H](C)[C@@H](OC(=O)C[C@@H](CC(=O)O)C(=O)O)[C@H](C[C@@H](C)C[C@H](O)CCCC[C@@H](O)C[C@H](O)[C@H](C)N)OC(=O)C[C@@H](CC(=O)O)C(=O)O` [FB1, Fumonisin B1] was tested. Which “post-translational nitration of MnSOD” value [1, 10] did it give?
**A.** The value was 350±45 densitometry units.

**Q.** What about the “GFAP immunoreactivity in superficial layers of the dorsal horn” value ([2]; 1 mg/kg/d of FB1 with morphine) of the same molecule?
**A.** Its value is “blocked”.

**Q.** What about the “spinal expression of GFAP (activation of astrocytes)” value [2, 10] of the same molecule?
**A.** Its value is 4627.38±0.483 densitometry units.

**Q.** What about the “Iba1 immunoreactivity in superficial layers of the dorsal horn” value ([3]; 1 mg/kg/d of FB1 with morphine) of the same molecule?
**A.** Its value is “blocked”.

**Q.** And the “spinal expression of IBa1 (activation of microglial cell)” value ([3]; morphine plus FB1 1 mg/kg/d, n=5)?
**A.** The value was 275.53±0.053 densitometry units.

**Q.** And the “appearance of NT staining” value ([4]; co-administration of morphine with FB1 1 mg/kg/d)?
**A.** The value was “blocked”.

**Q.** And the “increase in ceramide by immunohistochemical analysis and ESI-MS/MS” value ([5]; co-administration of morphine with FB1 1 mg/kg)?
**A.** The value was “prevented”.

**Q.** And the “development of tolerance, dose-dependence” value ([6]; co-administered with morphine, FB1 0.1-1 mg/kg/d, myriocin 0.1-0.4 mg/kg/d, D609 10-40 mg/kg/d, n=10)?
**A.** Its value is “attenuated in a dose-dependent manner”.

**Q.** What about the “hot plate latencies following s.c. saline” value ([6]; day five, highest dose of drug, no morphine, n=10) of the same molecule?
**A.** Its value is “six and seven”.

**Q.** What about the “difference in responses to acute morphine (0.3-3 mg/kg), drug vs vehicle” value ([6]; highest dose over five days: FB1 1 mg/kg/d, myriocin 0.4 mg/kg/d, D609 40 mg/kg/d, n=10) of the same molecule?
**A.** Its value is “statistically insignificant”.

**Q.** And the “antinociceptive effects when tested alone” value ([6]; highest dose, alone)?
**A.** The value was “none of FB1, myriocin, or D609 had antinociceptive effects”.

**Q.** What about the “% MPE” value ([6]; tolerant mice, single i.p. dose fifteen minutes before acute morphine 3 mg/kg: FB1 1 mg/kg, myriocin 0.4 mg/kg, D609 40 mg/kg) of the same molecule?
**A.** Its value is 7±3%.

**Q.** And the “increase in CS activity” value ([7]; co-administration of morphine with FB1 1 mg/kg/d, n=10)?
**A.** The value was “attenuated as expected the increase in CS activity”.

**Q.** And the “responses to acute morphine in control groups vs control groups treated with drug” value ([8]; Control+Drug groups, no repeated morphine)?
**A.** Its value is “similar”.

**Q.** And the “development of antinociceptive tolerance” value ([8]; co-administration with morphine, i.p., FB1 1 mg/kg, myriocin 0.2 mg/kg, D609 40 mg/kg)?
**A.** Its value is “prevented the development of antinociceptive tolerance”.

**Q.** And the “antinociceptive effects when tested alone” value ([8]; drug alone (not shown))?
**A.** The value was “no antinociceptive effects”.

From patent US20120328602A1, “COMPOSITIONS AND METHODS FOR TREATING CONDITIONS ASSOCIATED WITH CERAMIDE BIOSYNTHESIS” (priority 2007, published 2012)
